Patent publication US6569832B1, “Inhibition of beta cell degeneration” (Novo Nordisk A/S, priority 1999, dated 2003)

What was measured:
beta-cells [1] = assay: beta-cell proliferation rate (BrDU incorporation) in pancreas of treated ZDF rats; type: in vivo, male Zucker Diabetic Fatty fa/fa (ZDF) rat
From the text: (§1) The male Zucker Diabetic Fatty fa/fa (ZDF) rat is a model of Type 2 diabetes. The rats are insulin resistant but normoglycemic from birth and they develop diabetes from about week 7 to week 10 of age. During the transitional period, the animals go through a state of impaired glucose tolerance. Although the animals are hyperinsulinemic before diabetes onset and during the early stages of diabetes, they later lose glucose-stimulated insulin secretion and finally become almost completely insulinopenic.
We have studied the effects of Arg^34, Lys^26(N-ε-(γ-Glu(N-α-hexadecanoyl)))-GLP-1(7-37) therapy during a period of time when the animals would normally progress from having impaired glucose tolerance to having overt Type 2 diabetes. Three groups of male ZDF rats (Genetic Models Inc, Indianapolis, Ind., USA) were studied and dosed subcutaneously bi-daily with either vehicle (group A), 30 (group B) or 150 μg/kg (group C) of Arg^34, Lys^26(N-ε-(γ-Glu(N-α-hexadecanoyl)))-GLP-1(7-37), n=6 per group. Animals were between 7 and 8 weeks old when dosing was initiated, and fed glucose levels were not different between the groups before dosing began.
Bromodeoxyuridine (BrDU) is incorporated in newly synthesized DNA and thus will label replicating cells. Six hours before sacrifice the rats were given an injection of 100 mg BrDU/kg intraperitoneally. […]

beta-cells [2] = assay: volume fraction of beta-cells related to total pancreas volume in treated ZDF rats (point counting stereology); type: in vivo, male Zucker Diabetic Fatty fa/fa (ZDF) rat
From the text: as §1
We have studied the effects of Arg^34, Lys^26(N-ε-(γ-Glu(N-α-hexadecanoyl)))-GLP-1(7-37) therapy during a period of time when the animals would normally progress from having impaired glucose tolerance to having overt Type 2 diabetes. […]
Neighbor sections were stained for insulin and the combination of glucagon-somatostatin-pancreatic polypeptide for the measurement of the relative mass of islet beta-cells and nonbeta-cells. […] The nonbeta-cells were stained with a mixture of monoclonal mouse anti-glucagon+rabbit anti-somatostatin+rabbit anti-pancreatic polypeptide, detected by biotinylated swine anti-multible Ig's, avidin peroxidase, and developed with DAB and CuSO4 to give a dark brown stain. […]

neonatal rat islet cells = assay: cytokine-induced apoptosis in neonatal rat islet cells (annexin V-FITC/PI flow cytometry); type: cell-based
Method: Neonatal rats were sacrificed and pancreata were aseptically isolated. Islets of Langerhans were isolated by standard techniques. Intact islets were cultured in 6-well tissue culture plates at 750 islets/well (Nunc, Roskilde, Denmark) with or without 40 U/ml recombinant rat interleukin 1, 100 U/ml interferon-γ, and 100 U/ml tumor necrosis factor-α (all from Peprotech, London, UK) and the indicated doses of the GLP-1 derivative, Arg^34, Lys^26(N-ε-(γ-Glu(N-α-hexadecanoyl)))-GLP-1(7-37). After 24 hours of in vitro culture, single cell suspensions were obtained from the islets by gentle triturating in trypsin. After 2 rounds of washing, islet cells were reacted with annexin V-FITC and propedium iodide (PI) using a commercial staining kit according to the manufactures recommendations (Pharmingen, San Diego, Calif., USA). At the end of incubation the samples were analyzed by flow cytometry using a FACScalibur (Becton Dickinson, Mountain View, Calif., USA). Dead cells were excluded by gating on PI-negative cells, 25000 viable cells were acquired per sample. Data were analyzed using the CellQuest software (Becton Dickinson).

Arg^34, Lys^26(N-ε-(γ-Glu(N-α-hexadecanoyl)))-GLP-1(7-37)
beta-cell proliferation at the dose where volume of beta-cells increased (beta-cells [1]; 30 ng/g): proliferation was not seen
fraction of beta-cells that had incorporated BrDU (percentage of BrDU positive beta-cells) (beta-cells [1]; subcutaneously bi-daily 30 or 150 μg/kg vs vehicle, n=6 per group, BrDU 6 hours before sacrifice): dose dependent increase
beta-cell fraction of the total pancreas compared to vehicle treated rats (beta-cells [2]; 30 ng/g for 6 weeks): significantly higher
beta-cell fraction of the total pancreas, further increase over the 30 ng/g dose (beta-cells [2]; 150 ng/g): no further increase
reduction in the cytokine-induced apoptosis (neonatal rat islet cells; 100 nM, 24 hours with interleukin 1 40 U/ml, interferon-γ 100 U/ml, tumor necrosis factor-α 100 U/ml): approximately 50%
block of cytokine-induced apoptosis in islet cells ex vivo (neonatal rat islet cells; 24 hour incubation with cytokine mix): able to block
effect of the compound itself on the level of islet cell apoptosis (neonatal rat islet cells; without cytokine mix, 24 hours): no effect
